Measured values from US20190135818A1 (SHANGHAI INSTITUTE OF MATERIA MEDICA, CHINESE ACADEMY OF …, priority 2016, published 2019).

Key:
[1] = tested on: Human acute myeloid leukemia cell line KG1; assay: FGFR-dependent tumor cell proliferation inhibition activity test (CCK-8, 72 h); assay type: cell-based; conditions: Homo sapiens, KG-1, KG1 cells
Source text: Human acute myeloid leukemia cell line KG1 (FGFR1 fusion protein expressed in the cytoplasm, FGFR1-dependent tumor cell line) (ATCC, Cat. No. CCL-246), cell culture medium RPMI-1640 (Corning Cellgro, No. 10-040-CVR), fetal bovine serum (Life
Technologies, Cat. No. 10099-141) was purchased from the company; CCK-8 cell counting kit (DOJINDO, Cat. No. FK808). Adjustable wavelength microplate reader (Molecular Device, Cat. No. SpectraMax 190).
The inhibitory effect of the compound on KG1 proliferation was detected by CCK-8 Cell Counting Kit (Dojindo): Logarithmic growth phase cells were seeded in 96-well culture plate in appropriate density, 90 ul for each well. After cultured overnight, different concentrations of drugs were added and incubated for 72 h, while solvent control well was set (negative control). After the cells were treated by the compound for 72 h, 10 μL of CCK-8 reagent was added to each well. After incubated for 2-4 hours in a 37 □ incubator, the plate was read with SpectraMax 190 microplate reader at wavelength 450 nm.
The inhibition rate of compounds against cell proliferation is calculated by the following formula:
Inhibition rate (%)=(OD negative control well-OD administration well)/OD negative control well×100%.
(§1) The IC50 values were obtained by four-parameter regression analysis using the software supplied with the microplate reader.

FGFR1 = target: T1, FGFR1 (Homo sapiens, UniProt P11362); assay: FGFR kinase inhibitory activity experiment (ELISA, Poly(Glu,Tyr)4:1 substrate); assay type: biochemical; conditions: kinase recombinant protein FGFR1, ATP 5 μM
T1 construct: The reaction was initiated by addition of FGFR kinase domain recombinant protein diluted with 49 μL of reaction buffer; purchased Millipore 14-482
Method: Precision electronic balance (Sartotius, Cat. No. BP210D), adjustable wavelength microplate reader (Molecular Device, Cat. No. SpectraMax 190).
After the liquid was removed from the wells, the plate was washed for three times with 200 μL/well of T-PBS (PBS containing 0.1% Tween-20) for 5 minutes each time. The enzyme plate was dried at 37° C. in a dryer for 1-2 hours.
50 μL ATP solution diluted with reaction buffer (50 mM HEPES pH 7.4, 50 mM MgCl2, 0.5 mM MnCl2, 0.2 mM Na3VO4, 1 mM DTT) was added into each well at a 5 μM final concentration. The compounds were diluted to appropriate concentration in DMSO, 1 μL/well or containing the corresponding concentrations of DMSO (negative control wells). The reaction was initiated by addition of FGFR kinase domain recombinant protein diluted with 49 μL of reaction buffer. Two control wells without enzyme were set in each experiment. The plate was placed on a shaker (100 rpm) at 37° C. for 1 hour. The plate was washed with T-PBS for three times. 100 μL/well of primary antibody PY99 dilution was added, and incubated at 37° C. for 0.5 hour on a shaker (100 rpm). The plate was washed with T-PBS for three times. 100 μL/well of horseradish peroxidase-labeled secondary anti-goat anti-mouse IgG dilution was added and incubated at 37° C. for 0.5 hour on a shaker (100 rpm). The plate was washed with T-PBS for three times. 100 μL/well of 2 mg/mL OPD coloration solution (diluted with 0.1 M citric acid-sodium citrate buffer containing 0.03% H2O2 (pH=5.4)) was added, and incubated in darkness for 1-10 minutes at 25° C. The reaction was quenched with 50 μL/well 2M H2SO4, and read at 490 nm using a tunable microplate microplate reader SPECTRA MAX 190.
The inhibition ratio of the sample was determined by the following formula: […]
as §1

[2] = tested on: human lung cancer NCI-H1581 transplanted tumor; assay: Tumor growth inhibition in tumor-bearing mice (subcutaneously transplanted tumor); assay type: in vivo, BALB/cA nude mice; conditions: for T/C (%): 13th day; for TV (mm^3, mean ± SD) d0: d0, before dosing
Method: Before using, the compound was diluted with 5% Tween80 in normal saline to the desired concentration (light yellow suspension), and was prepared once a week.
Before using, the compound was diluted with 1% Tween 80 in normal saline to the desired concentration (white suspension), and was prepared once a week.
The cell strain was inoculated in the right axilla of the nude mice, and the amount of cells inoculated was 5×10^6/animal to form transplanted tumor, and passaged in vivo in nude mice by 1 generation before use.
The tumor tissue in the vigorous growth period was cut into 1.5 mm^3, and inoculated subcutaneously in the right axilla of the nude mice under aseptic conditions. The diameter of the subcutaneously transplanted in a nude mice was measured with a vernier caliper, and the animals were randomly grouped when the average volume of tumors was about 220 mm^3. […] The solvent control group was given an equal amount of normal saline. The diameter of the transplanted tumor was measured twice a week during the entire experiment, and the body weights of the mice were weighed. The calculation formula of tumor volume (TV) is: TV=1/2×a×b2, where a and b respectively represent the length and width of the tumor. The relative tumor volume (RTV) was calculated based on the measured results and the formula was: RTV=Vt/V0. Where V0 is the tumor volume measured before grouping and dosing (d0), and Vt is the tumor volume at each measurement.

[3] = AZD4547 12.5 mg/kg po qd/13, d13

T1 sequence (P11362 478-767 limits assumed): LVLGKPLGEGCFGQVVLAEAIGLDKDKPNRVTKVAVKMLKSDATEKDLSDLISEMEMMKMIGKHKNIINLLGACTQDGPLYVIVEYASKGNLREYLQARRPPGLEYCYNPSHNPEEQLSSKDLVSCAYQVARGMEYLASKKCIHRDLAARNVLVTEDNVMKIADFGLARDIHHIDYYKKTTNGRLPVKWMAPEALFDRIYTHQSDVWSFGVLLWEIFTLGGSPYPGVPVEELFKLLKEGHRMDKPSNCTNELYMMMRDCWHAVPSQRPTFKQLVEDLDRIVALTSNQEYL

In the case of `C=CC(=O)N1CCC(n2nc3c(=O)[nH]nc(N)c3c2-c2oc3cc(F)ccc3c2C)CC1` [Compound A83, 2-(1-acryloylpiperidin-4-yl)-4-amino-3-(6-fluoro-3-methylbenzofuran-2-yl)-2,6-dihydro-7H-pyrazole[3,4-d]pyridazine-7-one], the IC50 [1] is reported as at most 100 nM and the IC50 (FGFR1) is reported as under 100 nM.

`C=CC(=O)N1CCCC(n2nc3c(=O)[nH]nc(N)c3c2-c2oc3ccc(Cl)cc3c2C)C1` (centres unmarked) [Compound A87, 2-(1-acryloylpiperidin-3-yl)-4-amino-3-(5-chloro-3-methylbenzofuran-2-yl)-2,6-dihydro-7H-pyrazolo[3,4-d]pyridazine-7-one] showed an IC50 [1] of at most 100 nM and an IC50 (FGFR1) of under 100 nM.

For `CCC(=O)N1CCC(n2nc3c(=O)[nH]nc(N)c3c2-c2oc3ccc(C)cc3c2C)CC1` [Compound A10, 4-amino-3-(3,5-dimethyl-1-benzofuran-2-yl)-2-(1-propionylpiperidin-4-yl)-2,6-dihydro-7H-pyrazolo[3,4-d]pyridazin-7-one], the IC50 [1] was 100 to 1000 nM and the IC50 (FGFR1) was under 100 nM.

Compound `C=CC(=O)N1CCC(n2nc3c(=O)[nH]nc(N)c3c2-c2oc3cc(Cl)ccc3c2C)CC1` [Compound A84, 2-(1-acryloylpiperidin-4-yl)-4-amino-3-(6-chloro-3-methylbenzofuran-2-yl)-2,6-dihydro-7H-pyrazolo[3,4-d]pyridazine-7-one] has an IC50 [1] of at most 100 nM and an IC50 (FGFR1) of under 100 nM.

With `Cc1c(-c2c3c(N)n[nH]c(=O)c3nn2-c2ccc(NC(=O)/C=C/CN(C)C)cc2)oc2ccc(Cl)cc12` [Compound A26, (2E)-N-{4-[4-amino-3-(5-chloro-3-methyl-1-benzofuran-2-yl)-7-carbonyl-6,7-dihydro-2H-pyrazolo[3,4-d]pyridazin-2-yl]phenyl}-4-(dimethylamino)but-2-enamide] the IC50 [1] was at most 100 nM, the “growth of subcutaneously transplanted tumors (in words)” value ([2]; 50 mg/kg and 10 mg/kg intraperitoneally once a day for 13 days) was “significantly inhibited” and the “T/C (%)” value ([2]; A26 10 mg/kg ip qd/13) was 19.88%. The “body weight (g) d0” value ([2]; A26 10 mg/kg ip qd/13) was 18.4 g, the “TV (mm^3, mean ± SD) d0” value ([2]; A26 10 mg/kg ip qd/13) was 161 ± 71 mm^3 and the “RTV (mean ± SD)” value ([2]; A26 10 mg/kg ip qd/13, d13) was 4.17 ± 2.49. For the same compound, the “TV (mm^3, mean ± SD) d13” value ([2]; A26 10 mg/kg ip qd/13, d13) was 621 ± 289 mm^3, the “body weight (g) d13” value ([2]; A26 10 mg/kg ip qd/13, d13) was 21.3 g and the “T/C (%)” value ([2]; A26 50 mg/kg ip qd/13) was 2.20%. The “body weight (g) d0” value ([2]; A26 50 mg/kg ip qd/13) was 18.2 g, the “TV (mm^3, mean ± SD) d0” value ([2]; A26 50 mg/kg ip qd/13) was 159 ± 69 mm^3 and the “RTV (mean ± SD)” value ([2]; A26 50 mg/kg ip qd/13, d13) was 0.46 ± 0.19. The “TV (mm^3, mean ± SD) d13” value ([2]; A26 50 mg/kg ip qd/13, d13) was 66 ± 21 mm^3.

`C=CC(=O)N1CCC(n2nc3c(=O)[nH]nc(N)c3c2-c2oc3ccc(Cl)cc3c2C)CC1` [Compound A86, 2-(1-acryloylpiperidin-4-yl)-4-amino-3-(5-chloro-3-methylbenzofuran-2-yl)-2,6-dihydro-7H-pyrazolo[3,4-d]pyridazin-7-one] showed an IC50 [1] of at most 100 nM and an IC50 (FGFR1) of under 100 nM.

For `C=CC(=O)N1CCCC(n2nc3c(=O)[nH]nc(N)c3c2-c2oc3ccc(C)cc3c2C)C1` (centres unmarked) [Compound A40, 2-(1-acryloylpiperidin-3-yl)-4-amino-3-(3,5-dimethyl-1-benzofuran-2-yl)-2,6-dihy-dro-7H-pyrazolo[3,4-d]pyridazin-7-one], the IC50 [1] was at most 100 nM and the IC50 (FGFR1) was under 100 nM.

In the case of AZD4547 [reference compound], the “growth of subcutaneously transplanted tumors (in words)” value ([2]; 12.5 mg/kg orally once a day for 13 days) is reported as “partially inhibited”, the “T/C (%)” value ([2]; AZD4547 12.5 mg/kg po qd/13) is reported as 16.39% and the “TV (mm^3, mean ± SD) d0” value ([2]; AZD4547 12.5 mg/kg po qd/13) is reported as 153 ± 50 mm^3. For the same compound, the “RTV (mean ± SD)” value [2, 3] was 3.43 ± 2.61 and the “TV (mm^3, mean ± SD) d13” value [2, 3] was 517 ± 392 mm^3.

In the case of `C=C(C#N)C(=O)N1CCC(n2nc3c(=O)[nH]nc(N)c3c2-c2oc3ccc(C)cc3c2C)CC1` [Compound A55, 2-({4-[4-amino-3-(3,5-dimethyl-1-benzo-furan-2-yl)-7-carbonyl-6,7-dihydro-2H-pyrazolo[3,4-d]pyridazin-2-yl]piperidin-1-yl}carbonyl)prop-2-enenitrile], the IC50 [1] is reported as at most 100 nM and the IC50 (FGFR1) is reported as under 100 nM.

In the case of `Cc1ccc2oc(-c3c4c(N)n[nH]c(=O)c4nn3-c3ccc(N(C)CCN(C)C)cc3)c(C)c2c1` [Compound A11, 4-amino-2-(4-{[2-(dimethylamino)ethyl] (methyl)amino}phenyl)-3-(3,5-dimethyl-1-benzofuran-2-yl)-2,6-dihydro-7H-pyrazolo[3,4-d]pyridazin-7-one], the IC50 [1] is reported as 100 to 1000 nM and the IC50 (FGFR1) is reported as under 100 nM.

Compound `CCC(=O)N1CCC(n2nc3c(=O)[nH]nc(N)c3c2-c2oc3ccc(Cl)cc3c2C)CC1` [Compound A41] has an IC50 [1] of 100 to 1000 nM and an IC50 (FGFR1) of under 100 nM.

Compound `C=CC(=O)N1CCC(n2nc3c(=O)[nH]nc(N)c3c2-c2oc3ccc(F)cc3c2C)CC1` [Compound A80, 2-(1-acryloylpiperidin-4-yl)-4-amino-3-(5-fluoro-3-methylbenzofuran-2-yl)-2,6-dihydro-7H-pyrazolo[3,4-d]pyridazin-7-one] has an IC50 [1] of 100 to 1000 nM and an IC50 (FGFR1) of 100 to 1000 nM.

For `C=CC(=O)N1CCCC(n2nc3c(=O)[nH]nc(N)c3c2-c2oc3ccc(OC)cc3c2C)C1` (centres unmarked) [Compound A79, 2-(1-acryloylpiperidin-3-yl)-4-amino-3-(5-methoxy-3-methylbenzofuran-2-yl)-2,6-dihydro-7H-pyrazolo[3,4-d] pyridazin-7-one], the IC50 [1] was at most 100 nM and the IC50 (FGFR1) was under 100 nM.

In the case of `C=CC(=O)N1CCC(n2nc3c(=O)[nH]nc(N)c3c2-c2oc3ccc(C)cc3c2C)CC1` [Compound A29, 2-(1-acryloylpiperidin-4-yl)-4-amino-3-(3,5-dimethyl-1-benzofuran-2-yl)-2,6-dihydro-7H-pyrazolo[3,4-d]pyridazin-7-one], the IC50 [1] is reported as at most 100 nM and the IC50 (FGFR1) is reported as under 100 nM.

Compound `C=C(F)C(=O)N1CCC(n2nc3c(=O)[nH]nc(N)c3c2-c2oc3ccc(C)cc3c2C)C1` (centres unmarked) [Compound A52, 4-amino-3-(3,5-dimethyl-1-benzofuran-2-yl)-2-[1-(2-fluoroacryloyl)pyrrolidin-3-yl]-2,6-dihydro-7H-pyrazolo[3,4-d] pyridazin-7-one] has an IC50 [1] of at most 100 nM and an IC50 (FGFR1) of under 100 nM.
